Experimental data taken from ChEMBL document CHEMBL1955745, “Synthesis and in vitro antitumor activity of asperphenamate derivatives as autophagy inducer” (Bioorg Med Chem Lett, 2012).
Values after ≈ are worked out from the molar mass of the structure shown.

How the values were obtained:
MCF7 = assay: Antiproliferative activity against human MCF7 cells after 3 days by MTT assay; assay type: functional, cell-based; details: MCF7, 72 h
HeLa = assay: Antiproliferative activity against human HeLa cells after 3 days by MTT assay; assay type: functional, cell-based; details: 72 h
Bel-7402 = assay: Antiproliferative activity against human Bel7402 cells after 3 days by MTT assay; assay type: functional, cell-based; details: Bel-7402, 72 h
[1] = Thermodynamic solubility of the compound in phosphate buffer at pH 7.4 at 1 mg after 10 mins by HPLC -UV analysis; assay type: physicochemical; details: read-out: Therm_solubility

IC50 (MCF7) | IC50 (HeLa) | IC50 (Bel-7402) | solubility thermodynamic at 10 min [1] | Structure (SMILES)
> 100 µM | > 100 µM | > 100 µM |  | O=C(Cc1ccc(O)cc1)N[C@@H](Cc1ccccc1)C(=O)OC[C@@H](Cc1ccccc1)NC(=O)c1ccccc1
79.6 µM | 62.7 µM | 94.4 µM | 109 µg/mL (≈ 204 µM) | O=C(Cc1ccc(O)cc1)N[C@@H](Cc1ccccc1)C(=O)OC[C@H](Cc1ccccc1)NC(=O)c1ccccc1
> 100 µM | > 100 µM | > 100 µM |  | O=C(N[C@@H](COC(=O)[C@@H](Cc1ccccc1)NC(=O)c1ccccc1)Cc1ccccc1)c1ccccc1
36.3 µM | 42.9 µM | 38.1 µM |  | O=C(N[C@@H](COC(=O)[C@@H](Cc1ccccc1)NC(=O)c1ccccc1O)Cc1ccccc1)c1ccccc1
94.8 µM | > 100 µM | > 100 µM | 8.85 µg/mL (≈ 17.5 µM) | O=C(N[C@H](COC(=O)[C@H](Cc1ccccc1)NC(=O)c1ccccc1)Cc1ccccc1)c1ccccc1 [ASPERPHENAMATE]
> 100 µM | > 100 µM | > 100 µM | 349 µg/mL (≈ 650 µM) | O=C(Cc1ccccc1O)N[C@@H](Cc1ccccc1)C(=O)OC[C@H](Cc1ccccc1)NC(=O)c1ccccc1
52.5 µM | 42.8 µM | 70.9 µM |  | O=C(Cc1ccc(O)cc1)N[C@H](Cc1ccccc1)C(=O)OC[C@@H](Cc1ccccc1)NC(=O)c1ccccc1
42.4 µM | 42.5 µM | 41.2 µM |  | O=C(N[C@@H](COC(=O)[C@H](Cc1ccccc1)NC(=O)c1ccccc1O)Cc1ccccc1)c1ccccc1
39.2 µM | 27.9 µM | 33.6 µM |  | O=C(Cc1ccccc1O)N[C@@H](Cc1ccccc1)C(=O)OC[C@@H](Cc1ccccc1)NC(=O)c1ccccc1
18.4 µM | 19.5 µM | 29.7 µM |  | O=C(Cc1ccccc1O)N[C@H](Cc1ccccc1)C(=O)OC[C@@H](Cc1ccccc1)NC(=O)c1ccccc1
85.8 µM | 72.5 µM | 71.7 µM |  | O=C(N[C@@H](COC(=O)[C@H](Cc1ccccc1)NC(=O)c1ccccc1OCc1ccccc1)Cc1ccccc1)c1ccccc1
28.2 µM | 58.8 µM | 70.6 µM |  | O=C(Cc1ccccc1OCc1ccccc1)N[C@@H](Cc1ccccc1)C(=O)OC[C@@H](Cc1ccccc1)NC(=O)c1ccccc1
62.9 µM | 53.3 µM | 54 µM | 524 µg/mL (≈ 977 µM) | O=C(Cc1ccccc1O)N[C@H](Cc1ccccc1)C(=O)OC[C@H](Cc1ccccc1)NC(=O)c1ccccc1
28.8 µM | 25.5 µM | 37.8 µM | 135 µg/mL (≈ 216 µM) | O=C(Cc1ccccc1OCc1ccccc1)N[C@H](Cc1ccccc1)C(=O)OC[C@H](Cc1ccccc1)NC(=O)c1ccccc1
> 100 µM | > 100 µM | > 100 µM | 295 µg/mL (≈ 550 µM) | O=C(Cc1ccc(O)cc1)N[C@H](Cc1ccccc1)C(=O)OC[C@H](Cc1ccccc1)NC(=O)c1ccccc1
> 100 µM | > 100 µM | > 100 µM | 223 µg/mL (≈ 356 µM) | O=C(Cc1ccccc1OCc1ccccc1)N[C@@H](Cc1ccccc1)C(=O)OC[C@H](Cc1ccccc1)NC(=O)c1ccccc1
11.9 µM | 15.2 µM | 14.5 µM | 77.4 µg/mL (≈ 148 µM) | O=C(N[C@H](COC(=O)[C@@H](Cc1ccccc1)NC(=O)c1ccccc1O)Cc1ccccc1)c1ccccc1
55.3 µM | 63.4 µM | 49.9 µM |  | O=C(N[C@@H](COC(=O)[C@@H](Cc1ccccc1)NC(=O)c1cccc(O)c1)Cc1ccccc1)c1ccccc1
70.3 µM | 54.4 µM | 41.1 µM |  | O=C(N[C@@H](COC(=O)[C@@H](Cc1ccccc1)NC(=O)c1ccccc1OCc1ccccc1)Cc1ccccc1)c1ccccc1
> 100 µM | > 100 µM | > 100 µM | 3.21 µg/mL (≈ 6.34 µM) | O=C(N[C@H](COC(=O)[C@@H](Cc1ccccc1)NC(=O)c1ccccc1)Cc1ccccc1)c1ccccc1
> 100 µM | > 100 µM | > 100 µM | 26.3 µg/mL (≈ 43 µM) | O=C(N[C@H](COC(=O)[C@H](Cc1ccccc1)NC(=O)c1ccccc1OCc1ccccc1)Cc1ccccc1)c1ccccc1
> 100 µM | > 100 µM | > 100 µM |  | O=C(N[C@@H](COC(=O)[C@H](Cc1ccccc1)NC(=O)c1ccccc1)Cc1ccccc1)c1ccccc1
42.2 µM | 24.6 µM | 31.8 µM | 42.6 µg/mL (≈ 69.5 µM) | O=C(N[C@H](COC(=O)[C@@H](Cc1ccccc1)NC(=O)c1ccccc1OCc1ccccc1)Cc1ccccc1)c1ccccc1
49 µM | 30.4 µM | 64.8 µM | 18.2 µg/mL (≈ 34.7 µM) | O=C(N[C@H](COC(=O)[C@H](Cc1ccccc1)NC(=O)c1ccccc1O)Cc1ccccc1)c1ccccc1

Continued, molecule first:

Structure (SMILES) | IC50 (MCF7) | IC50 (HeLa) | IC50 (Bel-7402) | solubility thermodynamic at 10 min [1]
O=C(N[C@H](COC(=O)[C@@H](Cc1ccccc1)NC(=O)c1ccc(O)cc1)Cc1ccccc1)c1ccccc1 | 53.2 µM | 59 µM | 68.7 µM | 302 µg/mL (≈ 578 µM)
C[C@@H](COC(=O)[C@H](Cc1ccccc1)NC(=O)c1ccccc1)NC(=O)c1ccccc1 | > 100 µM | > 100 µM | > 100 µM | 513 µg/mL (≈ 1190 µM)
C[C@@H](NC(=O)c1ccccc1)C(=O)OC[C@@H](Cc1ccccc1)NC(=O)c1ccccc1 | > 100 µM | > 100 µM | > 100 µM | 
CC(=O)N[C@H](COC(=O)[C@@H](Cc1ccccc1)NC(=O)c1ccccc1)Cc1ccccc1 | 79.5 µM | > 100 µM | 89 µM | 79.7 µg/mL (≈ 179 µM)
CC(=O)N[C@@H](COC(=O)[C@@H](Cc1ccccc1)NC(=O)c1ccccc1)Cc1ccccc1 | > 100 µM | > 100 µM | > 100 µM | 
O=C(N[C@@H](COC(=O)[C@H](Cc1ccccc1)NC(=O)c1ccc(O)cc1)Cc1ccccc1)c1ccccc1 | 59.7 µM | 62.9 µM | 55.6 µM | 
CC(=O)N[C@@H](Cc1ccccc1)C(=O)OC[C@@H](Cc1ccccc1)NC(=O)c1ccccc1 | > 100 µM | > 100 µM | > 100 µM | 
O=C(N[C@@H](COC(=O)[C@H](Cc1ccccc1)NC(=O)c1cccc(O)c1)Cc1ccccc1)c1ccccc1 | > 100 µM | > 100 µM | > 100 µM | 
CC(=O)N[C@H](Cc1ccccc1)C(=O)OC[C@@H](Cc1ccccc1)NC(=O)c1ccccc1 | > 100 µM | > 100 µM | > 100 µM | 
C[C@H](NC(=O)c1ccccc1)C(=O)OC[C@@H](Cc1ccccc1)NC(=O)c1ccccc1 | > 100 µM | > 100 µM | > 100 µM | 
O=C(N[C@@H](COC(=O)[C@@H](Cc1ccccc1)NC(=O)c1ccc(O)cc1)Cc1ccccc1)c1ccccc1 | 32.8 µM | 52.1 µM | 51.4 µM | 
O=C(N[C@H](COC(=O)[C@H](Cc1ccccc1)NC(=O)c1cccc(O)c1)Cc1ccccc1)c1ccccc1 | > 100 µM | > 100 µM | > 100 µM | 1590 µg/mL (≈ 3040 µM)
C[C@@H](COC(=O)[C@@H](Cc1ccccc1)NC(=O)c1ccccc1)NC(=O)c1ccccc1 | > 100 µM | > 100 µM | > 100 µM | 236 µg/mL (≈ 549 µM)
O=C(N[C@H](COC(=O)[C@@H](Cc1ccccc1)NC(=O)c1cccc(O)c1)Cc1ccccc1)c1ccccc1 | 42.9 µM | 26.1 µM | 40.2 µM | 2000 µg/mL (≈ 3820 µM)
CC(=O)N[C@@H](Cc1ccccc1)C(=O)OC[C@H](Cc1ccccc1)NC(=O)c1ccccc1 | 88.4 µM | > 100 µM | > 100 µM | 560 µg/mL (≈ 1260 µM)
O=C(N[C@H](COC(=O)[C@H](Cc1ccccc1)NC(=O)c1ccc(O)cc1)Cc1ccccc1)c1ccccc1 | > 100 µM | > 100 µM | > 100 µM | 370 µg/mL (≈ 709 µM)
C[C@H](COC(=O)[C@H](Cc1ccccc1)NC(=O)c1ccccc1)NC(=O)c1ccccc1 | > 100 µM | > 100 µM | > 100 µM | 
C[C@H](COC(=O)[C@@H](Cc1ccccc1)NC(=O)c1ccccc1)NC(=O)c1ccccc1 | > 100 µM | > 100 µM | > 100 µM | 
CC(=O)N[C@H](Cc1ccccc1)C(=O)OC[C@H](Cc1ccccc1)NC(=O)c1ccccc1 | 79.9 µM | 56.4 µM | 69.8 µM | 207 µg/mL (≈ 466 µM)
C[C@H](NC(=O)c1ccccc1)C(=O)OC[C@H](Cc1ccccc1)NC(=O)c1ccccc1 | > 100 µM | > 100 µM | > 100 µM | 329 µg/mL (≈ 764 µM)
CC(=O)N[C@H](COC(=O)[C@H](Cc1ccccc1)NC(=O)c1ccccc1)Cc1ccccc1 | 48.6 µM | 71.5 µM | 79.1 µM | 485 µg/mL (≈ 1090 µM)
CC(=O)N[C@@H](COC(=O)[C@H](Cc1ccccc1)NC(=O)c1ccccc1)Cc1ccccc1 | > 100 µM | > 100 µM | > 100 µM | 
C[C@@H](NC(=O)c1ccccc1)C(=O)OC[C@H](Cc1ccccc1)NC(=O)c1ccccc1 | > 100 µM | > 100 µM | > 100 µM | 192 µg/mL (≈ 445 µM)
